The values that follow are results of earlier work, collected in patent publication US20040062779A1, “Dermatologic composition using ultra-fine/micronized 1-ascorbic acid and other antioxidant ingredients in a stabilized anhydrous vehicle” (priority 2002, published 2004).

The data set concerns collagen synthesis. Particulars: in-vitro; Pinnell, Yale J. Biol. Med. 58:554 (1985).

As for `O=C1O[C@H]([C@@H](O)CO)C(O)=C1O` [ascorbic acid], the collagen synthesis entry is recorded as “stimulates collagen synthesis”.
